# Source: patent publication US4094908A, “Alpha-substituted benzhydrol derivatives” (Richter Gedeon Vegyeszeti Gyar Rt., priority 1973, dated 1978)
# Columns and labels:
# [1] = tested on: UDP-glucoronyltransferase; experiment: UDP-glucuronyltransferase activity of liver tissues removed from pre-treated animals (bilirubin conjugation); format: in vivo; details: liver tissues of pre-treated animals incubated with bilirubin
# Protocol: In an in vivo test, liver tissues removed from animals pre-treated with compounds of the formula (I) were incubated in the presence of bilirubin, in order to determine the UDP-glucoronyltransferase activity of the liver tissues (Adlard, B. P. F., Lester, R. G., Lathe, G. H.: Biochem Pharmacol. 18, 59, 1969).
# central nervous system = format: in vivo, mice and rats; details: for Central nervous effects: in words, in contrast with phenobarbital
# Description: The central nervous activities of the compounds according to the invention were examined on mice and rats with the following methods: electroshock (Swinyard, E. A., Brown, W. C., Goodman, L. S.: J. Pharmacol. Exp. Ther. 106, 319, 1952), metrazol spasm (Everett, G. M., Richards, R. K.: J. Pharmacol. Exp. Ther. 81, 402: 1944), thiosemicarbezide spasm (Da Venzo, J. P. Greig, M. E., Cormin, M. A.: Amer. J. Physiol. 201, 833: 1961), strychnine spasm (Kerley, T. L., Richards, A. G., Begley, R. W., Abreu, B. B. Wesver, L. C.: J. Pharmacol. Exp. Ther. 132, 360: 1961), nicotine spasm (Stone, C. A., Mecklenburg, K. L., Torhans, M. L.: Arch. Int. Pharmacodyn. 117, 419: 1958), rotarod test (Kinnard, W. C., Carr, C. J.: J. Pharmacol. Expt. Ther. 121, 3, 54: 1957), physistigmine lethality preventing effect (Nose, T., Kojima, M.: Europ. J. Pharmacol. 10, 83: 1970), yohimbine potentiation effect (Quinton, R. M.: Brit. J. Pharmacol. 21, 51: 1963), and analgesic activity (Bianchi, G., Franceschini, J.: Brit. J. Pharm. Chemother. 9, 280: 1954). As reference substance, phenobarbital was used. […]
# [2] = tested on: liver microsomal enzyme system; experiment: Biological halving period of hexobarbital and hexobarbital concentration at wakening; format: in vivo; details: pre-treated 24 hours prior to hexobarbital; female rats 150 g
# [3] = tested on: liver microsomal enzyme system; experiment: Promotion or inhibition of the liver microsomal enzyme system; format: in vivo; details: in words
# Description: Tests per the methods described herein have shown compounds to be either effective in the promotion or inhibition of the liver microsomal enzyme system as follows: […]
# [4] = Toxicity: perished animals/tested animals; format: in vivo
# Description: Despite its disadvantageous properties, phenobarbital is widely used in the treatment of neonatal jaundice. In order to enable a better comparison, Table 8 indicates the respective dosages in which phenobarbital causes lethal respiration paralysis, while the compounds according to the invention are completely innocuous.
# bilirubin elimination = experiment: Bilirubin elimination under in vivo conditions; set-up: species or system rats; details: for t1/2 (biological halving period of bilirubin): pre-treated rats, 30 mg./kg. free bilirubin i.v.
# Protocol: When examining the bilirubin elimination under in vivo conditions on rats pre-treated with E 15 or phenobarbital, respectively, and challenged intravenously with a dosage of 30 mg./kg. of free bilirubin, the following biological halving periods were determined (Krueger, H., Higginson, J.: Proc. Soc. Exp. Biol. Med. 107, 43, 1961): […]
# [5] = tested on: bromosulfophthalein elimination; experiment: Bromosulfophthalein (BSP) concentration of the plasm after pre-treatment; format: in vivo; details: 24 hours after pre-treatment; after i.v. bromsulfophthaleine
# Protocol: The bromosulfophthalein (BSP) concentration of the plasm was determined 24 hours after pre-treatment with the compounds of the formula (I) and after the intravenous administration of bromsulfophthaleine, respectively (Varga, F., Fisher, E.: Acta Physiol. Hung. 36, 431, 1969).
# meprobamate elimination = experiment: Biological halving period of meprobamate after pre-treatment; format: in vivo; details: 24 hours after pre-treatment
# Protocol: The biological halving period of meprobamate was determined 24 hours after pre-treatment with the compounds of the formula (I) (Ludwig, B. J., Hoffman, A. J.; Arch. Biochem. 72, 234, 1957).
# hexobarbital oxidase = experiment: Enzyme-inducing potency: in vivo hexobarbital oxidase activity (duration of hexobarbital narcosis); set-up: species or system Female Wistar rats; details: 24 hours before hexobarbital
# Protocol: […] 24 and 48 hours after the administration of the active agent, respectively, the animals were narcotized with 40 mg./kg. i.v. dosage of hexobarbital sodium, and the time elapsed until complete wakening was measured (Noordhock, J.: Eur. J. Pharmacol. 3, 242, 1968). The data were recorded, and the mean values, the standard errors, as well as the percentage increase with respect to the controls were calculated for each group. […] The hexobarbital concentration of the plasma, measured on the instant of wakening, was the same for both the treated and the control animals, thus the increase of narcosis period was not due to a certain central nervous interaction (Jori, A., Bianchatti, A., Presentini, P. E.: Biochem. Pharmacol. 19, 2687, 1970).
# The enzyme-inducing potency of the new compounds was determined by several methods. One of these methods was the in vivo measurement of hexobarbital oxidase activity.
# The decrease of narcosis period is due to the fact that the new compounds according to the invention accelerate the elimination of hexobarbital, a foreign substance, from the body. When administering the compound to be tested in a single dosage and measuring the duration of hexobarbital narcosis 24 hours after the administration, the following results are obtained: […]
# [6] = neonatal jaundice; in words; cited from earlier work
structure (smiles),measurement,setting,value
"CCC(O)(c1ccccc1)c1cccc(C(F)(F)F)c1 (stereo not drawn) [E 15, 3-Trifluoromethyl-α-ethyl-benzhydrol]",Conjugated bilirubine,[1],37.4 ± 3.6 µg/g/h
same,Central nervous effects,central nervous system,no central nervous effects
same,t1/2 (biological halving period of hexobarbital),[2],23 min.
same,Effect on the liver microsomal enzyme system (inducing or inhibiting),[3],particularly advantageous inducing effect
same,Potency among the enzyme inducing or inhibiting compounds,[3],particularly potent
same,Duration and strength of inducing effect compared with phenobarbital,[3]; compared with phenobarbital,reaches that of phenobarbital
same,Perished animals/tested animals,[4]; 40 mg./kg,0/10
same,Perished animals/tested animals,[4]; 80 mg./kg,0/10
same,Perished animals/tested animals,[4]; 160 mg./kg,0/10
same,Perished animals/tested animals,[4]; 320 mg./kg,0/10
same,Perished animals/tested animals,[4]; 640 mg./kg,0/10
same,t1/2 (biological halving period of bilirubin),bilirubin elimination,7 min
same,Acceleration of bilirubin elimination compared with phenobarbital,"bilirubin elimination; rats, in words",about twice stronger than that of phenobarbital
same,BSP concentration of the plasm,[5],5.0 μg./mg. plasm
same,t1/2 (biological halving period of meprobamate),meprobamate elimination,2.1 hours
same,Sleeping period ± standard error,hexobarbital oxidase; 5 mg./kg. single dosage,18.0 ± 1.7
same,Sleeping period ± standard error,hexobarbital oxidase; 10 mg./kg. single dosage,14.2 ± 1.5
same,Sleeping period ± standard error,hexobarbital oxidase; 20 mg./kg. single dosage,10.6 ± 1.2
same,Sleeping period ± standard error,hexobarbital oxidase; 40 mg./kg. single dosage,8.8 ± 0.9
"CCC1(c2ccccc2)C(=O)NC(=O)NC1=O [Phenobarbital, reference compound]",Central nervous effects,central nervous system,hypnotic and respiration paralyzing effects
same,Central nervous activity,"central nervous system; oral 40, 120 and 150 mg./kg., phenobarbital effect even at 40 mg./kg.",strong anticonvulsive muscle-incoordinating and sedative effects
same,Perished animals/tested animals,[4]; 40 mg./kg,0/10
same,Perished animals/tested animals,[4]; 80 mg./kg,0/10
same,Perished animals/tested animals,[4]; 160 mg./kg,4/10
same,Perished animals/tested animals,[4]; 320 mg./kg,9/10
same,Perished animals/tested animals,[4]; 640 mg./kg,10/10
same,t1/2 (biological halving period of bilirubin),bilirubin elimination,13 min
same,Sleeping period ± standard error,hexobarbital oxidase; 5 mg./kg. single dosage,20.1 ± 2.0
same,Sleeping period ± standard error,hexobarbital oxidase; 10 mg./kg. single dosage,14.3 ± 1.4
same,Sleeping period ± standard error,hexobarbital oxidase; 20 mg./kg. single dosage,14.0 ± 1.3
same,Sleeping period ± standard error,hexobarbital oxidase; 40 mg./kg. single dosage,12.5 ± 1.2
same,Side effects,[6],toxic (sedative and respiration-paralyzing) side effects
